Experimental data published in US8598355B2, “Amide compound” (Astellas Pharma Inc., priority 2008, dated 2013).
pIC50: −log10 of the molar value.

Columns and labels:
rat EP4 receptor [1] = target: T1, rat EP4 receptor (Rattus norvegicus, UniProt P43114); test: In vivo rat EP4 receptor antagonistic activity (ONO-4819/LPS, plasma TNF-α); conditions: SD rat, oral
Method: Evaluation Test of In Vivo Rat EP4 Receptor Antagonistic Activity
A solution of PEG 400:20% Tween 80:aqueous 1 M NaHCO3 solution=1:4:5 of a test compound was orally administered to a SD rat (male, 6-week old) under non-fasting conditions, and after 1 hour, ONO-4819 was administered subcutaneously to the back of the rat. After 30 minutes, Lipopolysaccharide (LPS, 0.01 mg/kg) was administered to the tail vein without anesthesia, and after 60 minutes, 0.5 mL of heparin blood was collected from the fundus under ether anesthesia. The blood sample was centrifuged (3000 rpm, 10 minutes) to separate the plasma, and then the TNF-α concentration in the rat plasma was measured by an ELISA kit (see Hepatology Research Journal, vol. 21, 252-260, 2001). A value obtained by subtracting the TNF-α concentration of the group treated with ONO-4819 from the TNF-α concentration of the group not treated with ONO-4819 was taken as 100%, and the inhibitory rates to the value were calculated for the test compounds.
In this connection, Ex represents the below-described Example compound number.

rat EP4 receptor [2] = target: T1, rat EP4 receptor; test: Rat EP4 receptor antagonistic activity by measurement of cAMP amount (rEP4 cAMP HTRF assay, CHO cells); format: cell-based; parameters: expressed in transfected cells; conditions: inhibition of cAMP, PGE2 100 nM, CHO cells expressing rat EP4
Method: Evaluation Test of Rat EP4 Receptor Antagonistic Activity by Measurement of cAMP Amount
CHO cells in which rat EP4 had been forced to be expressed were seeded in 96-well plates at 2×10^4 cells/100 μL and cultured overnight. The culture medium was replaced with 2 μM Indomethacin/0.1% BSA/alpha-MEM, and further, after 60 minutes, replaced with 1 mM IBMX/2 μM Indomethacin/0.1% BSA/alpha-MEM. After 10 minutes, the test compound was added, and further, after 10 minutes, PGE2 was added at a final concentration of 100 nM. The cells were cultured and reacted in a CO2 incubator (37° C., 5% CO2). After 30 minutes, the culture medium was removed and 100 μL/well of 0.2% Triton X-PBS was added for lysis of the cells. The cAMP contained in this cell lysis solution was measured with a cAMP HiRange kit (Cisbio international). The cell lysis solution was disperesed at 10 μL each into a 384-well U-bottom black microplate (Corning), and a d2 reagent and an europium cryptate reagent were added in this order to each well, each in an amount of 5 μL. It was incubated at room temperature for 60 minutes under light shielding. After incubation, the fluorescence of the cryptate at 620 nm and the fluorescence of the d2 at 655 nm were measured using ARVO1420 (PerkinElmer). The cAMPs of 280, 70, 17.5, 4.38, 1.09, 0.27, and 0.068 nM were measured simultaneously for creating a standard curve. The inhibitory rates were calculated by determining the cAMP amount of each test sample to the value obtained by subtracting the cAMP amount of the group without addition of PGE2 from the cAMP amount of the group with addition of PGE2 of 100 nM. IC50 values are calculated by a Logistic regression method.

T1 sequence (P43114 whole entry): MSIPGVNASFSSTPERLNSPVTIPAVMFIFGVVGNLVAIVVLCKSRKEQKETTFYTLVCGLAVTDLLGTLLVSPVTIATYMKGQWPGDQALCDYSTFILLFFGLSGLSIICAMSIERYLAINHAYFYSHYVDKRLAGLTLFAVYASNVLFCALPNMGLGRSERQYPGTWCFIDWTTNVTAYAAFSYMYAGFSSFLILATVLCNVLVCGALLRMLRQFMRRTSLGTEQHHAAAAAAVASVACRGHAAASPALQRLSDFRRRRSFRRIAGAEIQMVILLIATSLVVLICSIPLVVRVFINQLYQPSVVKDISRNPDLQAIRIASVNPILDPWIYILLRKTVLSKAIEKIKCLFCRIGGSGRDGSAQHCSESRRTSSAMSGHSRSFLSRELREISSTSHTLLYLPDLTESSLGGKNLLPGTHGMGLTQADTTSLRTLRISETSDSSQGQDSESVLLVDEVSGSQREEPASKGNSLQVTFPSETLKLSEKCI

Inhibitory rate (%) (rat EP4 receptor [1]; dose 0.01 mg/kg) | pIC50 (rat EP4 receptor [2]) | Inhibitory rate (%) (rat EP4 receptor [1]; dose 0.03 mg/kg) | melting point | SMILES
45 | 9.05 |  |  | O=C(NC[C@H]1CC[C@H](C(=O)O)CC1)c1cc(Cl)cc2ccn(Cc3ccc4ccccc4n3)c12 [Example 53]
 | 9.12 | 113 | 243 to 244 °C (dec.) | O=C(O)c1ccc(CNC(=O)c2cc(Cl)cc3ccn(Cc4ccc5ccccc5n4)c23)cc1 [Example 57]
 | 8.96 | 105 |  | O=C(NC[C@H]1CC[C@H](C(=O)O)CC1)c1cc(C(F)(F)F)cc2ccn(Cc3ccc4ccccc4n3)c12 [Example 124]
